Assays:
[1] = target: Human sodium/glucose co-transporter type 2 (SGLT2) (Homo sapiens (Human), UniProt P31639); test: In vitro human SGLT2 inhibition assay (14C-AMG uptake); format: cell-based; conditions: HEK293 cells expressing human HA-SGLT2, 14C-AMG uptake
Method: Human sodium/glucose co-transporter type 2 (SGLT2; accession number P31639; GI:400337) was cloned into pIRESpuro2 vector for mammalian expression (construct: HA-SGLT2-pIRESpuro2).
HEK293 cells were transfected with the human HA-SGLT2-pIRESpuro2 vector and the bulk stable cell line was selected in presence of 0.5 μg/mL of puromycin. Human HA-SGLT2 cells were maintained in DMEM media containing 10% FBS, 1% GPS and 0.5 μg/mL of puromycin.
The HEK293 cells expressing the human HA-SGLT2 were seeded in 384 well plates (30,000 cells/well) in DMEM media containing 10% FBS, 1% GPS and 0.5 μg/mL of puromycin, then incubated overnight at 37 C, 5% CO2. Cells were then washed with uptake buffer (140 mM NaCl, 2 mM KCl, 1 mM CaCl2, 1 mM MgCl2, 10 mM HEPES, 5 mM Tris, 1 mg/mL bovine serum albumin (BSA), pH 7.3). Twenty microliters of uptake buffer with or without testing compounds were added to the cells. Then, 20 microliters of uptake buffer containing ^14C-AMG (100 nCi) were added to the cells. The cell plates were incubated at 37° C., 5% CO2 for 1-2 hours. After washing the cells with uptake buffer, scintillation fluid was added (40 microliters/well) and ^14C-AMG uptake was measured by counting radioactivity using a scintillation coulter (TopCoulter NXT; Packard Instruments).

[2] = target: Human sodium/glucose co-transporter type 1 (SGLT1) (Homo sapiens (Human), UniProt P13866); test: In vitro human SGLT1 inhibition assay (14C-AMG uptake); format: cell-based; set-up: key to SGLT1 (human SGLT1 IC50): ***: a value less than 0.01 μM; **: a value less than 0.1 μM; *: a value less than 1 μM; —: a value not measured or exceeding μM; conditions: HEK293 cells expressing human HA-SGLT1, 14C-AMG uptake
Method: Human sodium/glucose co-transporter type 1 (SGLT1; accession number NP_000334; GI: 4507031) was cloned into pIRESpuro2 vector for mammalian expression (construct: HA-SGLT1-pIRESpuro2).
HEK293 cells were transfected with the human HA-SGLT1-pIRESpuro2 vector and the bulk stable cell line was selected in presence of 0.5 μg/mL of puromycin. Human HA-SGLT1 cells were maintained in DMEM media containing 10% FBS, 1% GPS and 0.5 μg/mL of puromycin.
The HEK293 cells expressing the human HA-SGLT1 were seeded in 384 well plates (30,000 cells/well) in DMEM media containing 10% FBS, 1% GPS and 0.5 μg/mL of puromycin, then incubated overnight at 37 C, 5% CO2. Cells were then washed with uptake buffer (140 mM NaCl, 2 mM KCl, 1 mM CaCl2, 1 mM MgCl2, 10 mM HEPES, 5 mM Tris, 1 mg/mL bovine serum albumin (BSA), pH 7.3). Twenty microliters of uptake buffer with or without testing compounds were added to the cells. Then, 20 microliters of uptake buffer containing ^14C-AMG (100 nCi) were also added to cells. The cell plates were incubated at 37° C., 5% CO2 for 1-2 hours. After washing the cells with uptake buffer, scintillation fluid was added (40 microliters/well) and ^14C-AMG uptake was measured by counting radioactivity using a scintillation coulter (TopCoulter NXT; Packard Instruments).

Human sodium/glucose co-transporter type 1 (SGLT1), sequence (P13866 whole entry): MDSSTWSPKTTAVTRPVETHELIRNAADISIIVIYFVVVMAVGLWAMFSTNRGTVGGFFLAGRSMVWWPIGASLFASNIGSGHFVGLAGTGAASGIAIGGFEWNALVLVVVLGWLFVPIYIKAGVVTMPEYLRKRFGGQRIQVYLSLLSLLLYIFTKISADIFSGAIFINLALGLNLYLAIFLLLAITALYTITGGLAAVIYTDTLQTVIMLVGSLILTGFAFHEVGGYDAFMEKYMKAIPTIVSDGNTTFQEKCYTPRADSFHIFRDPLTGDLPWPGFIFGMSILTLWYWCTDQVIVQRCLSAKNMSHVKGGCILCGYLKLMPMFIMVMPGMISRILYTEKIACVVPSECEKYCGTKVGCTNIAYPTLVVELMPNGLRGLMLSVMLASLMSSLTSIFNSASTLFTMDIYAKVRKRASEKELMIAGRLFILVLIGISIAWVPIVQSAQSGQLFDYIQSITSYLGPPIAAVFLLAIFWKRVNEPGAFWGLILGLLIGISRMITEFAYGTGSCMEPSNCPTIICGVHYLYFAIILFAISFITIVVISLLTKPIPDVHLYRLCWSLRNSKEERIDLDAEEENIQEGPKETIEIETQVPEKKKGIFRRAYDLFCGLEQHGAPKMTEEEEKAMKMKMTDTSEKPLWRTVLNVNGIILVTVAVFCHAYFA
Human sodium/glucose co-transporter type 2 (SGLT2), sequence (P31639 whole entry): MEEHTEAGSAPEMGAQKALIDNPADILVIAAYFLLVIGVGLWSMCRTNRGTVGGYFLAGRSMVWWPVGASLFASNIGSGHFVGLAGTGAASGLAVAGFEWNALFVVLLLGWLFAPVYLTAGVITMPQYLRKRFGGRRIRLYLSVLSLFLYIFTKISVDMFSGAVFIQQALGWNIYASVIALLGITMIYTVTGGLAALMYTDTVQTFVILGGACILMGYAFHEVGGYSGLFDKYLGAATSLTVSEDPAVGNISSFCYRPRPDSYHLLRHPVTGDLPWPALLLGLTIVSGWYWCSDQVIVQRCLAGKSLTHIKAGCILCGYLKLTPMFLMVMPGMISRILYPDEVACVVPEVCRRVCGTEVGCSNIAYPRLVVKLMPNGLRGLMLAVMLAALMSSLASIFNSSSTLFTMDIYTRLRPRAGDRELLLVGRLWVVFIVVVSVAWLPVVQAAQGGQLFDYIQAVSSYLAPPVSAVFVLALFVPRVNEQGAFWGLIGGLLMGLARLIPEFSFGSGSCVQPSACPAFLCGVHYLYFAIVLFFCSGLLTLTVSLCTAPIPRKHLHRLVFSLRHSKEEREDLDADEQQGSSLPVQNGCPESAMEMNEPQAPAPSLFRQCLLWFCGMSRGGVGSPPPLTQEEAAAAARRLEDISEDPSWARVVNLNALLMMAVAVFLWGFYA

Row | IC50 [1] [nM] | IC50 [2] [nM] | SGLT1 (human SGLT1 IC50) [2] | Compound
1 | < 10 | < 100 |  | CS[C@H]1O[C@@H](c2ccc(C)c(Cc3ccc(CCCC(=O)NCCN(CCNC(=O)CCCc4ccc(Cc5cc([C@@H]6O[C@H](SC)[C@@H](O)[C@H](O)[C@H]6O)ccc5C)cc4)CCNC(=O)CCCc4ccc(Cc5cc([C@@H]6O[C@H](SC)[C@@H](O)[C@H](O)[C@H]6O)ccc5C)cc4)cc3)c2)[C@H](O)[C@@H](O)[C@@H]1O [(S,R,S,R,R,S,R,S,R,R)-N,N′,N″-(nitrilotris(ethane-2,1-diyl))tris(4-(4-(2-methyl-5-((2S,3R,4R,5S,6R)-3,4,5-trihydroxy-6-(methylthio)tetrahydro-2H-pyran-2-yl)benzyl)phenyl)butanamide)]
2 | < 10 | < 10 |  | CS[C@H]1OC(c2ccc(C)c(Cc3ccc(OCCNC(=O)NCC(C)(C)C(N)=O)cc3)c2)[C@H](O)[C@@H](O)[C@@H]1O (stereo partly drawn) [2,2-dimethyl-3-(3-(2-(4-(2-methyl-5-((3R,4R,5S,6R)-3,4,5-trihydroxy-6-(methylthio)tetrahydro-2H-pyran-2-yl)benzyl)phenoxy)ethyl)ureido)propanamide]
3 | < 100 |  | — | CS[C@H]1O[C@@H](c2ccc(Cl)c(Cc3ccc(OCC[C@H](N)C(=O)O)cc3)c2)[C@H](O)[C@@H](O)[C@@H]1O [(S)-2-amino-4-(4-(2-chloro-5-((2S,3R,4R,5S,6R)-3,4,5-trihydroxy-6-(methylthio)tetrahydro-2H-pyran-2-yl)benzyl)phenoxy)butanoic acid]
4 | < 10 | < 10 |  | CS[C@H]1O[C@@H](c2ccc(Cl)c(Cc3ccc(OCCCC(=O)NC(C)(C)CO)cc3)c2)[C@H](O)[C@@H](O)[C@@H]1O [4-(4-(2-chloro-5-((2S,3R,4R,5S,6R)-3,4,5-trihydroxy-6-(methylthio)tetrahydro-2H-pyran-2-yl)benzyl)phenoxy)-N-(1-hydroxy-2-methylpropan-2-yl)butanamide]
5 |  | < 100 |  | CS[C@H]1O[C@@H](c2ccc(C)c(Cc3ccc(OCCNC(=O)NC(C)(C)CO)cc3)c2)[C@H](O)[C@@H](O)[C@@H]1O [1-(1-hydroxy-2-methylpropan-2-yl)-3-(2-(4-(2-methyl-5-((2S,3R,4R,5S,6R)-3,4,5-trihydroxy-6-(methylthio)tetrahydro-2H-pyran-2-yl)benzyl)phenoxy)ethyl)urea]
6 | < 10 | < 10 |  | CS[C@H]1O[C@@H](c2ccc(C)c(Cc3ccc(CCCCNC(=N)N)cc3)c2)[C@H](O)[C@@H](O)[C@@H]1O [1-(4-(4-(2-methyl-5-((2S,3R,4R,5S,6R)-3,4,5-trihydroxy-6-(methylthio)tetrahydro-2H-pyran-2-yl)benzyl)phenyl)butyl)guanidine]
7 | < 10 | < 10 |  | CS[C@H]1O[C@@H](c2ccc(C)c(Cc3ccc(OCCCC(=O)NCC(C)(C)C(=O)N4CCN(C)CC4)cc3)c2)[C@H](O)[C@@H](O)[C@@H]1O [N-(2,2-dimethyl-3-(4-methylpiperazin-1-yl)-3-oxopropyl)-4-(4-(2-methyl-5-((2S,3R,4R,5S,6R)-3,4,5-trihydroxy-6-(methylthio)tetrahydro-2H-pyran-2-yl)benzyl)phenoxy)butanamide]
8 | < 10 | < 100 |  | Cc1ccc([C@@H]2O[C@H]([S+](C)[O-])[C@@H](O)[C@H](O)[C@H]2O)cc1Cc1ccc(CCCC(=O)NC(C)(C)C(=O)N2CCN(C)CC2)cc1 (stereo partly drawn) [N-(2-methyl-1-(4-methylpiperazin-1-yl)-1-oxopropan-2-yl)-4-(4-(2-methyl-5-((2S,3R,4R,5S,6R)-3,4,5-trihydroxy-6-(methylsulfinyl)tetrahydro-2H-pyran-2-yl)benzyl)phenyl)butanamide]
9 | < 10 | < 10 |  | CS[C@H]1O[C@@H](c2ccc(C)c(Cc3ccc(OCCCC(=O)NC4(C(=O)N5CCN(C)CC5)CCCC4)cc3)c2)[C@H](O)[C@@H](O)[C@@H]1O [4-(4-(2-methyl-5-((2S,3R,4R,5S,6R)-3,4,5-trihydroxy-6-(methylthio)tetrahydro-2H-pyran-2-yl)benzyl)phenoxy)-N-(1-(4-methylpiperazine-1-carbonyl)cyclopentyl)butanamide]
10 | < 100 |  | — | CS[C@H]1O[C@@H](c2ccc(C)c(Cc3ccc(CCC[C@H](N)C(=O)O)cc3)c2)[C@H](O)[C@@H](O)[C@@H]1O [(S)-2-amino-5-(4-(2-methyl-5-((2S,3R,4R,5S,6R)-3,4,5-trihydroxy-6-(methylthio)tetrahydro-2H-pyran-2-yl)benzyl)phenyl)pentanoic acid]
11 | < 10 | < 10 |  | CS[C@H]1O[C@@H](c2ccc(C)c(Cc3ccc(/C=C/CCC(=O)NC(CO)(CO)CO)cc3)c2)[C@H](O)[C@@H](O)[C@@H]1O [(E)-N-(1,3-dihydroxy-2-(hydroxymethyl)propan-2-yl)-5-(4-(2-methyl-5-((2S,3R,4R,5S,6R)-3,4,5-trihydroxy-6-(methylthio)tetrahydro-2H-pyran-2-yl)benzyl)phenyl)pent-4-enamide]
12 | < 10 | < 10 |  | CS[C@H]1O[C@@H](c2ccc(C)c(Cc3ccc(CCCCNCC(C)(C)C(=O)N4CCN(C)CC4)cc3)c2)[C@H](O)[C@@H](O)[C@@H]1O [2,2-dimethyl-3-((4-(4-(2-methyl-5-((2S,3R,4R,5S,6R)-3,4,5-trihydroxy-6-(methylthio)tetrahydro-2H-pyran-2-yl)benzyl)phenyl)butyl)amino)-1-(4-methylpiperazin-1-yl)propan-1-one]
13 | < 10 | < 10 |  | CS[C@H]1O[C@@H](c2ccc(C)c(Cc3ccc(CCCCN(CC(O)CO)CC(O)CO)cc3)c2)[C@H](O)[C@@H](O)[C@@H]1O (stereo partly drawn) [(2S,3R,4R,5S,6R)-2-(3-(4-(4-(bis(2,3-dihydroxypropyl)amino)butyl)benzyl)-4-methylphenyl)-6-(methylthio)tetrahydro-2H-pyran-3,4,5-triol]
14 | < 100 |  | — | CS[C@H]1O[C@@H](c2ccc(C)c(Cc3ccc(OCC(=O)O)cc3)c2)[C@H](O)[C@@H](O)[C@@H]1O [2-(4-(2-methyl-5-((2S,3R,4R,5S,6R)-3,4,5-trihydroxy-6-(methylthio)tetrahydro-2H-pyran-2-yl)benzyl)phenoxy)acetic acid]
15 | < 10 | < 10 |  | CS[C@H]1O[C@@H](c2ccc(C)c(Cc3ccc(CCCC(=O)NCC(=O)N4CCN(C)CC4)cc3)c2)[C@H](O)[C@@H](O)[C@@H]1O [4-(4-(2-methyl-5-((2S,3R,4R,5S,6R)-3,4,5-trihydroxy-6-(methylthio)tetrahydro-2H-pyran-2-yl)benzyl)phenyl)-N-(2-(4-methylpiperazin-1-yl)-2-oxoethyl)butanamide]
16 | < 100 |  | — | CS[C@H]1O[C@@H](c2ccc(C)c(Cc3ccc(CCCC(=O)NCC(C)(C)C(=O)N(C)CCN(C)C)cc3)c2)[C@H](O)[C@@H](O)[C@@H]1O [N-(3-((2-(dimethylamino)ethyl)(methyl)amino)-2,2-dimethyl-3-oxopropyl)-4-(4-(2-methyl-5-((2S,3R,4R,5S,6R)-3,4,5-trihydroxy-6-(methylthio)tetrahydro-2H-pyran-2-yl)benzyl)phenyl)butanamide]
17 | < 10 | < 10 |  | CS[C@H]1O[C@@H](c2ccc(Cl)c(Cc3ccc(OCCNC(=O)N4CCN(C)CC4)cc3)c2)[C@H](O)[C@@H](O)[C@@H]1O [N-(2-(4-(2-chloro-5-((2S,3R,4R,5S,6R)-3,4,5-trihydroxy-6-(methylthio)tetrahydro-2H-pyran-2-yl)benzyl)phenoxy)ethyl)-4-methylpiperazine-1-carboxamide]
18 | < 10 | < 10 |  | CS[C@H]1O[C@@H](c2ccc(Cl)c(Cc3ccc(OCCCNC(=O)NC(C)(C)C(N)=O)cc3)c2)[C@H](O)[C@@H](O)[C@@H]1O [2-(3-(3-(4-(2-chloro-5-((2S,3R,4R,5S,6R)-3,4,5-trihydroxy-6-(methylthio)tetrahydro-2H-pyran-2-yl)benzyl)phenoxy)propyl)ureido)-2-methylpropanamide]
